The NIST ThermoML archive (doi:10.1007/s10765-013-1432-0)
± gives the expanded uncertainty stated by the source.

Test: mn = molality of the nth substance listed, in mol/kg
Settings: 101 kPa, Liquid, Linear variable-path acoustic interferometer, m1 = 0.512

SMILES | speed of sound (298.15 K) [m/s] | speed of sound (303.15 K) [m/s] | speed of sound (308.15 K) [m/s] | speed of sound (313.15 K) [m/s] | speed of sound (318.15 K) [m/s] | speed of sound (323.15 K) [m/s]
O=[N+]([O-])[O-].[K+] [potassium nitrate] + O | 1517.8 ± 1.8 | 1526.8 ± 1.8 | 1536.3 ± 1.8 | 1544.4 ± 1.8 | 1551.1 ± 1.8 | 1556.6 ± 1.9
O=S(=O)([O-])[O-].[K+].[K+] [potassium sulfate] + O | 1563.6 ± 1.9 | 1571.6 ± 1.8 | 1580.3 ± 1.8 | 1587.6 ± 1.8 | 1593.5 ± 1.8 | 1598.3 ± 1.9
